Data reported in patent US10960017B2, “Sorafenib or regorafenib troxacitabine phosphoramidate prodrug combination therapy for liver cancer” (priority 2016, dated 2021).
Like-named read-outs stand apart in the source and are kept apart here.

Tests used:
[1] = test system: human hepatocellular carcinoma cell line Hep3B; test: Combinatorial evaluation in cell culture (Hep3B proliferation, Cell Counting Kit-8, MacSynergy II); format: cell-based; conditions: combination with sorafenib, Hep3B cells, 6 days incubation; for anti-proliferative interaction with sorafenib (MacSynergy II classification): 95% confidence; for log volume at 95% confidence (synergy volume calculated by MacSynergy II): log volumes >9 indicate strong synergy
Experimental: General Procedure for Combinatorial Evaluation in Cell Culture
For analysis of the human hepatocellular carcinoma cell line Hep3B, from DSMZ (ACC 93), was used. Hep3B cells were cultured as epithelial-like cells in monolayers in 90% MEM (with Earle's salts)+10% h.i. FBS+2 mM L-glutamine+50 u/ml Penicillin/0.05 mg/ml Streptomycin as culture medium. Confluent cultures were split 1:4 to 1:10 every 3-5 days using trypsin/EDTA, and re-seeded at 0.5−1×10^6 cells/80 cm^2.
Cell culture flask is washed 2 times with 5 ml PBS and PBS discarded. Add 1.5 ml of trypsin and put the flask into the incubator for 3-4 minutes. Shake the flask and add 10 ml of DMEM, 10% FCS, 50 μ/ml Penicillin/0.05 mg/ml Streptomycin without phenol red. The cells were counted using the Scepter cell counter, Hep3B cells were diluted to 20×10^3 cells/ml in complete cell medium without phenol red. 100 μl cell suspension/well was seeded in 96-well cell assay plates. Two replicate plates for each combination.
Test compounds were tested at nine concentrations, either 5 μM to 0.00076 μM or 10 μM to 0.0015 μM, in a 1:3 dilution series. Sorafenib was tested at seven concentrations, 20 μM to […], in a 1:2 dilution series. The four dilution plates were prepared with the Echo instrument.
The compound dilutions were 2 times the desired final concentrations. The volume in the dilution plates in each well are 125 μl of medium with compounds.
100 μl from the dilution plate with compounds in the different concentrations were transferred to the corresponding well of the cell assay plate with 100 μl, (200 μl/well in total volume). Incubate the plates for 6 days, at 37° C., 5% CO2.
10 μl of CCK Kit-8 was added to each well using a multi-channel pipette (submerging the tips below the surface in each well). Plates were incubated for 4 hours at 37° C., 5% CO2.
The plate was read in the spectrophotometer at a wavelength of 450 nm, with a reference filter of 650 nm. Average absorbance was >1 to <3 for the vehicle treated cell controls.
Raw data from the two plates of each combination were entered into the Mac Synergy II shareware where the combined effect was calculated and plotted in a 3D dose-response surface graph. Theoretical additive interactions are calculated from the dose response curves for each drug individually. Calculated additive surface is subtracted from experimentally determined dose-response surfaces to reveal regions of non-additive activity. The final results are given as synergy or antagonism volumes (μM^2%) according to guide lines given in the manual for MacSynergy II:
Synergy volumes: • 1. Values of synergy or antagonism under 25 μM^2% (log volumes <2) at 95% confidence should be regarded as insignificant and are probably not important. • 2. Values between 25 μM^2% and 50 μM^2% (log volumes >2 and <5) should be considered a minor but significant amount of synergy. • 3. Values between 50 μM^2% and 100 μM^2% (log volumes >5 and <9) indicate moderate synergy or antagonism. This interaction may be important in vivo. • 4. Values over 100 μM^2% (log volumes >9) indicate strong synergy and are probably important in vivo.

[2] = cited from earlier work

CCCC(CCC)COC(=O)[C@H](C)NP(=O)(OC[C@H]1OC[C@@H](n2ccc(N)nc2=O)O1)Oc1ccccc1 (single isomer, unassigned) [Example 3]
anti-proliferative interaction with sorafenib (MacSynergy II classification) [1]: strong anti-proliferative synergy | log volume at 95% confidence (synergy volume calculated by MacSynergy II) [1]: 32

CNC(=O)c1cc(Oc2ccc(NC(=O)Nc3ccc(Cl)c(C(F)(F)F)c3)cc2)ccn1.Cc1ccc(S(=O)(=O)O)cc1 [Sorafenib tosylate, 4-(4-{3-[4-Chloro-3(trifluoromethyl)phenyl]ureido}phenoxy) N-methylpyridine-2-carboxamide 4-methylbenzenesulfonate]
solubility ([2]; PEG 400): soluble | solubility ([2]; aqueous media): practically insoluble | solubility ([2]; ethanol): slightly soluble

CCC[C@H](C)OC(=O)[C@H](C)NP(=O)(OC[C@H]1OC[C@@H](n2ccc(N)nc2=O)O1)Oc1ccccc1 (single isomer, unassigned) [Example 1]
anti-proliferative interaction with sorafenib (MacSynergy II classification) [1]: strong anti-proliferative synergy | log volume at 95% confidence (synergy volume calculated by MacSynergy II) [1]: 76

CC[C@@H](C)OC(=O)[C@H](C)NP(=O)(OC[C@H]1OC[C@@H](n2cc(F)c(N)nc2=O)O1)Oc1ccccc1 (single isomer, unassigned) [Example 2]
anti-proliferative interaction with sorafenib (MacSynergy II classification) [1]: strong anti-proliferative synergy | log volume at 95% confidence (synergy volume calculated by MacSynergy II) [1]: 11

CNC(=O)c1cc(Oc2ccc(NC(=O)Nc3ccc(Cl)c(C(F)(F)F)c3)c(F)c2)ccn1 [Regorafenib monohydrate, 4-[4-({[4-chloro-3-(trifluoromethyl)phenyl]carbamoyl}amino)-3-fluorophenoxy]-N-methylpyridine-2-carboxamide monohydrate]
solubility ([2]; acetone): sparingly soluble | solubility ([2]; acetonitrile): slightly soluble | solubility ([2]; aqueous media): practically insoluble | solubility ([2]; ethanol): slightly soluble | solubility ([2]; ethyl acetate): slightly soluble | solubility ([2]; methanol): slightly soluble

CC[C@@H](C)OC(=O)[C@@H](NP(=O)(OC[C@H]1OC[C@@H](n2ccc(N)nc2=O)O1)Oc1ccccc1)C(C)C (single isomer, unassigned) [Example 5]
anti-proliferative interaction with sorafenib (MacSynergy II classification) [1]: strong anti-proliferative synergy | log volume at 95% confidence (synergy volume calculated by MacSynergy II) [1]: 46

CCC[C@H](C)OC(=O)[C@H](C)NP(=O)(OC[C@H]1OC[C@@H](n2ccc(N)nc2=O)O1)Oc1ccc(Br)cc1 (single isomer, unassigned) [Example 4]
anti-proliferative interaction with sorafenib (MacSynergy II classification) [1]: strong anti-proliferative synergy | log volume at 95% confidence (synergy volume calculated by MacSynergy II) [1]: 40
